The text below walks through data of patent publication EP0745597A2, “Novel melatonergic indanyl piperazines or homopiperazines” (BRISTOL-MYERS SQUIBB COMPANY, priority 1995, dated 1996).

The target of the experiment is T1, human ML1B receptor (Homo sapiens, UniProt P49286).
T1 construct: host or cells: NIH 3T3 cells, stably transfected; membrane homogenates
T1 sequence (P49286 1-362): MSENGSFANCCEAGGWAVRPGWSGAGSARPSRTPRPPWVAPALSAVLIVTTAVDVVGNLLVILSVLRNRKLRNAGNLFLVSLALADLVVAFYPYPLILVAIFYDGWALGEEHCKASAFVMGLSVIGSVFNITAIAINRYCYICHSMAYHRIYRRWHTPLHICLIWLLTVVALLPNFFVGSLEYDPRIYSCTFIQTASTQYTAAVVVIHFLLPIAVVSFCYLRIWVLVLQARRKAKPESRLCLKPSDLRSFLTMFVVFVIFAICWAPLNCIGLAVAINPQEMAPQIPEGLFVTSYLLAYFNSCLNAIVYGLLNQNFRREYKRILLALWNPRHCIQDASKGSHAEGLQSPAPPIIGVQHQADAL
In words: Measurement of binding to melatonergic receptors (2-[125I]-iodomelatonin, membranes of transfected NIH 3T3 cells). The settings on record: 2-[125I]-Iodomelatonin 200 pM, 37 °C for 1 hour, NIH 3T3 cells stably transfected with the human ML1B receptor; read-out: Melatonin Binding. How it is done: The melatonergic binding affinities of various compounds of Formula I were determined by the method of Reppert, S. M., Weaver, D. R., and Ebisawa, R. (Neuron, Volume 13, 1177-1185, 1994). The assays were incubated at 37 °C for 1 hour, and the reaction was terminated by filtration. The filters were washed with wash buffer. […] The reagents, membrane and other techniques used in the melatonergic binding assays are more fully described below: • 1. Reagents: • (a) 50 mM Tris buffer containing 12.5 mM MgCl2, and 2mM EDTA, pH 7.4 at 37 °C. • (b) Wash buffer: 20 mM Tris base containing 2 mM MgCl2. pH 7.4 at room temperature. • (c) Melatonin (10^-5 M final concentration). • (d) 2-[^125I]-Iodomelatonin, 200 pM final concentration Source: NEN • 2. Membrane preparation: NIH 3T3 cells stably transfected with the human ML1B receptor were obtained from S.M. Reppert and maintained. Cells were pelleted when confluent. The supernatant was discarded and the pellets frozen. For preparing membrane homogenates, the pellets are thawed on ice and resuspended in TME buffer, Tris base, MgCl2, EDTA (pH 7.4 at 37 °C ), supplemented with aprotinin, leupeptin, and […]. The cells were then homogenized and centrifuged. The resulting pellet was resuspended with a Dounce homogenizer in TME and frozen. At assay, a small aliquot was thawed on ice and resuspended in TME buffer. […] These compounds are considered active.

Turning to `COc1ccc2c(c1)C(N1CCN(C(=O)c3sccc3Br)CC1)CC2` (single isomer, unassigned; (-)) [(-)1-[(3-Bromothien-2-yl)carbonyl]-4-(6-Methoxy-indan-1-yl)piperazine], the IC50 was under 10 nM. On to `CCC(C)(C)C(=O)N1CCN(C2CCc3ccc(OC)cc32)CC1` (single isomer, unassigned; (-)) [(-)-1-(2,2-Dimethyl-butanoyl)-4-(6-methoxy-indan-1-yl)piperazine], for which the IC50 lay in the range of 10 to 100 nM. The value for `COc1ccc2c(c1)C(N1CCN(C(=O)c3ccccc3Cl)CC1)CC2` (single isomer, unassigned; (-)) [(-)-1-(2-Chlorobenzoyl)-4-(6-methoxy-indan-1-yl)piperazine] was 100 to 250 nM; that for `COc1ccc2c(c1)C(N1CCN(C(=O)c3ccccc3O)CC1)CC2` (single isomer, unassigned; (-)) [(-)-1-(2-Hydroxybenzoyl)-4-(6-methoxy-indan-1-yl)piperazine] was under 10 nM. The value for `COc1ccc2c(c1)C(N1CCN(C(=O)c3ccccc3)CC1)CC2` (single isomer, unassigned; (-)) [(-)-1-(Benzoyl)-4-(6-methoxy-indan-1-yl)piperazine] was 100 to 250 nM; that for `COc1ccc2c(c1)C(N1CCN(C(=O)CCl)CC1)CC2` (single isomer, unassigned; (-)) [(-)-1-(Chloroacetyl)-4-(6-methoxy-indan-1-yl)piperazine] was 10 to 100 nM; that for `COc1ccc2c(c1)C(N1CCN(C(=O)C3(C)CCCCC3)CC1)CC2` (single isomer, unassigned; (-)) [(-)-1-[(1-Methylcyclohexyl)carbonyl]-4-(6-methoxy-indan-1-yl)piperazine] was 100 to 250 nM. The value for `COc1ccc2c(c1)C(N1CCN(C(=O)c3c[nH]c4ccccc34)CC1)CC2` (single isomer, unassigned; (-)) [(-)-1-[(1H-indol-3-yl)carbonyl]-4-(6-methoxy-indan-1-yl)piperazine] was 100 to 250 nM; that for `COc1ccc2c(c1)C(N1CCN(C(=O)C=C(C)C)CC1)CC2` (single isomer, unassigned; (-)) [(-)-1-[(2,2-Dimethyl-ethenyl)carbonyl]-4-(6-methoxy-indan-1-yl)piperazine] was 10 to 100 nM; that for `COc1ccc2c(c1)C(N1CCN(C(=O)c3sccc3Cl)CC1)CC2` (single isomer, unassigned; (-)) [(-)-1-[(3-Chlorothien-2-yl)carbonyl]-4-(6-methoxy-indan-1-yl)-1-piperazine] was under 10 nM. On to `COc1ccc2c(c1)C(N1CCN(C(=O)c3ccoc3)CC1)CC2` (single isomer, unassigned; (-)) [(-)-1-[(3-Furanyl)carbonyl]-4-(6-methoxy-indan-1-yl)piperazine], for which the IC50 lay in the range of 10 to 100 nM.

With `COc1ccc2c(c1)C(N1CCN(C(=O)c3cc(Br)c(Br)s3)CC1)CC2` (single isomer, unassigned; (-)) [(-)-1-[(4,5-Dibromo-thien-2-yl)carbonyl]-4-(6-methoxy-indan-1-yl)piperazine], the IC50 lay in the range of 100 to 250 nM. The value for `COc1ccc2c(c1)C(N1CCN(C(=O)c3ccc(Br)o3)CC1)CC2` (single isomer, unassigned; (-)) [(-)-1-[(5-Bromo-furan-2-yl)carbonyl]-4-(6-methoxy-indan-1-yl)piperazine] was 10 to 100 nM; that for `COc1ccc2c(c1)C(N1CCN(C(=O)c3ccc(Cl)s3)CC1)CC2` (single isomer, unassigned; (-)) [(-)-1-[(5-Chloro-thien-2-yl)carbonyl]-4-(6-methoxy-indan-1-yl)piperazine] was 100 to 250 nM.

Regarding `COc1ccc2c(c1)C(N1CCN(C(=O)CSC)CC1)CC2` (single isomer, unassigned; (-)) [(-)-4-(6-Methoxy-indan-1-yl)-1-(2-methylthioacetyl)piperazine], the IC50 was under 10 nM. Take `CCC(=O)C(=O)N1CCN(C2CCc3ccc(OC)cc32)CC1` (single isomer, unassigned; (-)) [(-)-4-(6-Methoxy-indan-1-yl)-1-(2-oxo-butanoyl)piperazine]: the IC50 is 10 to 100 nM. The value for `C=CCCC(=O)N1CCN(C2CCc3ccc(OC)cc32)CC1` (single isomer, unassigned; (-)) [(-)-4-(6-Methoxy-indan-1-yl)-1-(4-pentenoyl)piperazine] was 100 to 250 nM; that for `C=CCCCCCCCCC(=O)N1CCN(C2CCc3ccc(OC)cc32)CC1` (single isomer, unassigned; (-)) [(-)-4-(6-Methoxy-indan-1-yl)-1-(10-undecenoyl)piperazine] was 100 to 250 nM; that for `COc1ccc2c(c1)C(N1CCN(C(=O)c3csnn3)CC1)CC2` (single isomer, unassigned; (-)) [(-)-4-(6-Methoxy-indan-1-yl)-1-[(1,2,3-thiadiazol-4-yl)carbonyl]-piperazine] was 10 to 100 nM. With `COc1ccc2c(c1)C(N1CCN(C(=O)c3cccn3C)CC1)CC2` (single isomer, unassigned; (-)) [(-)-4-(6-Methoxy-indan-1-yl)-1-[(1-methyl-pyrrol-2-yl)carbonyl]piperazine], the IC50 was under 10 nM. The value for `COc1ccc2c(c1)C(N1CCN(C(=O)c3ccc[nH]3)CC1)CC2` (single isomer, unassigned; (-)) [(-)-4-(6-Methoxy-indan-1-yl)-1-[(1H-pyrrol-2-yl)carbonyl]-piperazine] was 10 to 100 nM; that for `COc1ccc2c(c1)C(N1CCN(C(=O)c3occc3C)CC1)CC2` (single isomer, unassigned; (-)) [(-)-4-(6-Methoxy-indan-1-yl)-1-[(3-methyl-furan-2-yl)carbonyl]piperazine] was under 10 nM. The value for `COc1ccc2c(c1)C(N1CCN(C(=O)c3ccsc3)CC1)CC2` (single isomer, unassigned; (-)) [(-)-4-(6-Methoxy-indan-1-yl)-1-[(3-thienyl)carbonyl]piperazine] was under 10 nM; that for `CCNC(=O)N1CCN(C2CCc3ccc(OC)cc32)CC1` (single isomer, unassigned; (-)) [(-)-N-Ethyl-4-(6-methoxy-indan-1-yl)piperazine-1-carboxamide] was under 10 nM; that for `CCCC(=O)N1CCN(C2CCCc3ccc(OC)cc32)CC1` (stereo not shown) [1-(1-Butanoyl)-4-(7-methoxy-tetralin-1-yl)piperazine] was 10 to 100 nM. The value for `COc1ccc2c(c1)C(N1CCN(C(=O)C(C)(C)C)CC1)CC2` (stereo not shown) [1-(2,2-dimethyl-propanoyl)-4-(6-methoxy-indan-1-yl)piperazine] was 10 to 100 nM. Regarding `COc1ccc2c(c1)C(N1CCN(C(=O)C3CCC3)CC1)CC2` (stereo not shown) [1-(Cyclobutylcarbonyl)-4-(6-methoxy-indan-1-yl)piperazine], the IC50 was under 10 nM. With `COc1ccc2c(c1)C(N1CCN(C(=O)C3CCCC3)CC1)CC2` (stereo not shown) [1-(Cyclopentylcarbonyl)-4-(6-methoxy-indan-1-yl)piperazine], the IC50 is 10 to 100 nM. Turning to `COc1cc2c(cc1F)CCC2N1CCN(C(=O)C2CC2)CC1` (stereo not shown) [1-(Cyclopropylcarbonyl)-4-(5-fluoro-6-methoxy-indan-1-yl)piperazine], the IC50 was 10 to 100 nM.

On to `CCOc1ccc2c(c1)C(N1CCN(C(=O)C3CC3)CC1)CC2` (stereo not shown) [1-(Cyclopropylcarbonyl)-4-(6-ethoxy-indan-1-yl)piperazine], for which the IC50 was under 10 nM. The value for `CCc1ccc2c(c1)C(N1CCN(C(=O)C3CC3)CC1)CC2` (stereo not shown) [1-(Cyclopropylcarbonyl)-4-(6-ethyl-indan-1-yl)piperazine] was 100 to 250 nM. With `COc1ccc2c(c1)C(N1CCCN(C(=O)C3CC3)CC1)CC2` (stereo not shown) [1-(Cyclopropylcarbonyl)-4-(6-methoxy-indan-1-yl)homopiperazine], the IC50 was 10 to 100 nM. In the case of `COc1ccc2c(c1)C(N1CCN(C(=O)C3CC3)CC1)CC2` (stereo not shown) [1-(Cyclopropylcarbonyl)-4-(6-methoxy-indan-1-yl)piperazine], the IC50 was under 10 nM. The value for `CCCCCCCCCOc1ccc2c(c1)C(N1CCN(C(=O)C3CC3)CC1)CC2` (stereo not shown) [1-(Cyclopropylcarbonyl)-4-(6-nonyloxy-indan-1-yl)piperazine] was 100 to 250 nM; that for `COc1ccc2c(c1)C(N1CCN(C(=O)C3CC3)CC1)CCC2` (stereo not shown) [1-(Cyclopropylcarbonyl)-4-(7-methoxy-tetralin-1-yl)piperazine] was 100 to 250 nM; that for `O=C(C1CC1)N1CCN(C2CCc3ccccc32)CC1` (stereo not shown) [1-(Cyclopropylcarbonyl)-4-(indan-1-yl)piperazine] was 100 to 250 nM. The value for `CCCOc1ccc2c(c1)C(N1CCN(C(=O)C3CC3)CC1)CC2` (stereo not shown) [1-(Cyclopropylcarbonyl)-4-[6-(1-propyloxy)indan-1-yl]piperazine] was 10 to 100 nM.
